Values joined by “and” are separate entries in the source; they are usually repeats but may differ in a detail not shown here. Equal entries are not always repeated.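 Growth conditions: 96-well plates. Treatment: test compound, 48 hours, 5 concentrations. Analysis: linear interpolation between bracketing concentrations; unreached endpoints set to highest concentration. Here, GI50 denotes the concentration required for 50% inhibition of growth. Definition used: TGI = concentration required for complete inhibition of growth.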
Key:
Assay in all cases: NCI-60 cell line screen, 48 h
[1] = tested on: OVCAR-3 ovarian
[2] = tested on: 786-0 renal
[3] = tested on: UACC-62 melanoma
[4] = tested on: OVCAR-5 ovarian
[5] = tested on: RXF 393 renal
[6] = tested on: OVCAR-4 ovarian
[7] = tested on: ACHN renal
[8] = tested on: SF-295 CNS
[9] = tested on: TK-10 renal
[10] = tested on: UO-31 renal
[11] = tested on: HOP-62 NSCLC
[12] = tested on: MDA-MB-231 breast
[13] = tested on: NCI-H460 lung
[14] = tested on: IGROV1 ovarian
[15] = tested on: SF-268 CNS
[16] = tested on: SW-620 colon
[17] = tested on: HCT-116 colon
[18] = tested on: HS 578T breast
[19] = tested on: U251 CNS
[20] = tested on: NCI-H226 lung
[21] = tested on: A549 NSCLC
[22] = tested on: SK-MEL-5 melanoma
[23] = tested on: SF-539 CNS
[24] = tested on: SNB-75 CNS
[25] = tested on: HT29 colon
[26] = tested on: SR leukemia
[27] = tested on: LOX IMVI melanoma
[28] = tested on: SK-MEL-28 melanoma
[29] = tested on: T-47D breast
[30] = tested on: EKVX NSCLC
[31] = tested on: HL-60(TB) leukemia
[32] = tested on: MOLT-4 leukemia
[33] = tested on: KM12 colon
[34] = tested on: NCI-H23 lung
[35] = tested on: M14 melanoma
[36] = tested on: DU-145 prostate
[37] = tested on: A498 renal
[38] = tested on: HCT-15 colon
[39] = tested on: NCI-H522 lung
[40] = tested on: MDA-MB-435
[41] = tested on: OVCAR-8 ovarian
[42] = tested on: HOP-92 NSCLC
[43] = tested on: SK-MEL-2 melanoma
[44] = tested on: K-562 leukemia
[45] = tested on: CAKI-1 renal
[46] = tested on: COLO 205 colon
[47] = tested on: MCF7 breast
[48] = tested on: UACC-257 melanoma
[49] = tested on: SNB-19 CNS
[50] = tested on: NCI/ADR-RES ovarian
[51] = tested on: RPMI-8226 leukemia
[52] = tested on: PC-3 prostate
[53] = tested on: BT-549 breast
[54] = tested on: CCRF-CEM leukemia
[55] = tested on: SN12C renal
[56] = tested on: HCC-2998 colon
[57] = tested on: SK-OV-3 ovarian
[58] = tested on: MALME-3M melanoma

For `C[C@@H]1C[C@H]2C(=O)OCC(NC(=O)[C@H](Cc3cc(F)cc(F)c3)NC(=O)Nc3ccc(Cl)cc3F)C(=O)N3CCC[C@H]3C(=O)N3CCCC[C@H]3C(=O)N[C@@H](C)C(=O)N2C1` (some centres undefined), the GI50 [1] was 2.23 µM and 0.55 µM, the TGI [1] was 50 µM and 11.4 µM and the GI50 [2] was 3.06 µM and 1.18 µM. The TGI [2] was 50 µM and 55.5 µM, the GI50 [3] was 2.3 µM and 0.644 µM and the TGI [3] was 12.4 µM and 14.9 µM. For the same compound, the GI50 [4] was 2.34 µM and 0.751 µM, the TGI [4] was 10.9 µM and 16.5 µM and the GI50 [5] was 2.89 µM and 1.69 µM. The TGI [5] was 13.4 µM and 11.5 µM, the GI50 [6] was 1.66 µM and 0.482 µM and the TGI [6] was 50 µM and > 100 µM. The GI50 [7] was 2.22 µM and 1.14 µM, the TGI [7] was 50 µM and > 100 µM and the GI50 [8] was 1.87 µM and 0.411 µM. The TGI [8] was 11.8 µM and 7.71 µM, the GI50 [9] was 3.04 µM and 1.49 µM and the TGI [9] was 50 µM and 33.8 µM. For the same compound, the GI50 [10] was 2.12 µM and 2.03 µM, the TGI [10] was 50 µM and 65.8 µM and the GI50 [11] was 2.03 µM and 1.07 µM. For the same compound, the TGI [11] was 50 µM and 35.8 µM, the GI50 [12] was 1.65 µM and 0.484 µM and the TGI [12] was 5.9 µM and 4.24 µM. For the same compound, the GI50 [13] was 1.88 µM and 0.516 µM, the TGI [13] was 50 µM and 17.3 µM and the GI50 [14] was 4.56 µM and 1.6 µM. For the same compound, the TGI [14] was 50 µM and 81.6 µM, the GI50 [15] was 3.15 µM and 0.645 µM and the TGI [15] was 50 µM and 51.9 µM. The GI50 [16] was 3.37 µM and 0.801 µM, the TGI [16] was 50 µM and > 100 µM and the GI50 [17] was 1.96 µM and 0.355 µM. The TGI [17] was 7.37 µM and 2.04 µM, the GI50 [18] was 1.74 µM and 0.603 µM and the TGI [18] was 50 µM and 18.6 µM. The GI50 [19] was 2.2 µM and 0.514 µM, the TGI [19] was 50 µM and 28.8 µM and the GI50 [20] was 2.08 µM and 0.312 µM. For the same compound, the GI50 [21] was 1.96 µM and 0.916 µM, the TGI [21] was 50 µM and > 100 µM and the GI50 [22] was 1.82 µM and 0.566 µM. The TGI [22] was 7.37 µM and 4.56 µM, the GI50 [23] was 2.63 µM and 1.27 µM and the TGI [23] was 10.5 µM and 15.4 µM. The GI50 [24] was 2.29 µM and 0.365 µM, the TGI [24] was 50 µM and 16.9 µM and the GI50 [25] was 1.91 µM and 0.595 µM. For the same compound, the TGI [25] was 8.68 µM and 3.37 µM, the GI50 [26] was 0.964 µM and 1.37 µM and the TGI [26] was 6.9 µM and 14.4 µM. The GI50 [27] was 0.898 µM and 0.776 µM, the GI50 [28] was 3.04 µM and 1.37 µM and the TGI [28] was 12.5 µM and 16.4 µM. For the same compound, the GI50 [29] was 1.73 µM and 0.549 µM, the TGI [29] was 50 µM and 30.7 µM and the GI50 [30] was 2.16 µM and 0.643 µM. The TGI [30] was 50 µM and 97.1 µM, the GI50 [31] was 1.73 µM and 0.287 µM and the TGI [31] was 8.21 µM and 1.53 µM. The GI50 [32] was 0.437 µM and 0.793 µM, the TGI [32] was 5.12 µM and 17.9 µM and the GI50 [33] was 3.33 µM and 2.5 µM. For the same compound, the TGI [33] was 27.1 µM and 19.7 µM, the GI50 [34] was 2.79 µM and the TGI [34] was 50 µM. For the same compound, the GI50 [35] was 2.05 µM and 0.448 µM, the TGI [35] was 9.05 µM and 10.3 µM and the GI50 [36] was 2.1 µM and 0.511 µM. For the same compound, the TGI [36] was 50 µM and > 100 µM, the GI50 [37] was 2.47 µM and the TGI [37] was 28.5 µM and 19.2 µM. The GI50 [38] was 1.96 µM and 0.468 µM, the TGI [38] was 37.3 µM and 10.4 µM and the GI50 [39] was 1.44 µM and 0.38 µM. For the same compound, the TGI [39] was 8.78 µM and 5.8 µM, the GI50 [40] was 2.25 µM and 0.495 µM and the TGI [40] was 13.2 µM and 12.3 µM. The GI50 [41] was 1.79 µM and 0.408 µM, the TGI [41] was 50 µM and > 100 µM and the GI50 [42] was 1.41 µM and 0.399 µM. The TGI [42] was 8.43 µM and 7.29 µM, the GI50 [43] was 1.81 µM and 0.337 µM and the TGI [43] was 8.07 µM and 3.28 µM. For the same compound, the GI50 [44] was 0.399 µM, the TGI [44] was > 100 µM and the GI50 [45] was 1.9 µM and 0.4 µM. For the same compound, the TGI [45] was 50 µM and 15.6 µM, the GI50 [46] was 1.27 µM and 0.402 µM and the TGI [46] was 3.64 µM and 1.39 µM. For the same compound, the GI50 [47] was 1.89 µM and 0.39 µM, the TGI [47] was 50 µM and 20 µM and the GI50 [48] was 1.45 µM and 0.449 µM. For the same compound, the TGI [48] was 6.43 µM and 7.05 µM, the GI50 [49] was 2 µM and 0.46 µM and the TGI [49] was 50 µM and > 100 µM. For the same compound, the GI50 [50] was 7.72 µM and 2.87 µM, the TGI [50] was 50 µM and > 100 µM and the GI50 [51] was 1.19 µM and 0.333 µM. For the same compound, the TGI [51] was 7.42 µM and 1.72 µM, the GI50 [52] was 1.7 µM and 0.373 µM and the TGI [52] was 29.4 µM and 19 µM. The GI50 [53] was 1.91 µM and 0.499 µM, the TGI [53] was 8.74 µM and 6.72 µM and the GI50 [54] was 2.18 µM and 0.51 µM. The TGI [54] was 47.2 µM and 19 µM, the GI50 [55] was 1.68 µM and 0.444 µM and the TGI [55] was 50 µM and 82.4 µM. The GI50 [56] was 2.74 µM and 0.619 µM, the TGI [56] was 11.2 µM and 4.46 µM and the GI50 [57] was 2.14 µM and 1.51 µM. For the same compound, the TGI [57] was 35.6 µM and 17.1 µM, the GI50 [58] was 3.1 µM and 1.64 µM and the TGI [58] was 16.7 µM and 16.3 µM.
